Source: patent publication US20210122730A1, “GLUCOCORTICOID RECEPTOR MODULATORS” (ORIC Pharmaceuticals, Inc., priority 2017, published 2021)

These molecules were tested against T1, GR (Homo sapiens, UniProt P04150) (assay: In Vitro GR Luciferase Reporter Assay (antagonist mode, CHO-K1-GR-MMTV-Luc reporter cells)). Settings: antagonist mode, 10 nM Dexamethasone.
T1 construct: expressed in transfected cells; host or cells: CHO-K1
T1 sequence (P04150 1-777): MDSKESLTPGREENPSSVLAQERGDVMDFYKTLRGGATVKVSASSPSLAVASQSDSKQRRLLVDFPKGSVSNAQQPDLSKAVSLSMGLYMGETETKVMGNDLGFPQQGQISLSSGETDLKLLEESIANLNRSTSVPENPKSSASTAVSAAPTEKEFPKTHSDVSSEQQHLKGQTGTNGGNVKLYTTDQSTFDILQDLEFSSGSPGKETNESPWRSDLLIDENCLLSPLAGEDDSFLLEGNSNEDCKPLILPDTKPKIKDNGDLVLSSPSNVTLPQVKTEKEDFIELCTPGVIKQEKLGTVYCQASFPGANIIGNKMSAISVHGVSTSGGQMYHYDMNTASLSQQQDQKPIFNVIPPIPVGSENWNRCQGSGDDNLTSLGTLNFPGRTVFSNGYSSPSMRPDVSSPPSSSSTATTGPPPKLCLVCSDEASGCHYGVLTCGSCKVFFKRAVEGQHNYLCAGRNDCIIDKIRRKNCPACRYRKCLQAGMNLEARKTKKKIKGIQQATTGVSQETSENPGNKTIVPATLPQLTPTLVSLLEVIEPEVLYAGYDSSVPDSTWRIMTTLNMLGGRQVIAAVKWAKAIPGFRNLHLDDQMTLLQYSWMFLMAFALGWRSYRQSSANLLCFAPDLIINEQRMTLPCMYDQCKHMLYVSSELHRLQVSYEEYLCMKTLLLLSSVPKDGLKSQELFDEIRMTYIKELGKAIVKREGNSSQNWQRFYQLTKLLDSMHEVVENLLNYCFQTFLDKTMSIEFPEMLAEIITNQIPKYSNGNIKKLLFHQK
Type: cell-based
Method in brief: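 CHO-K1-GR-MMTV-Luc cells in phenol red-free DMEM with 10% CSS, stimulated with 10 nM dexamethasone (final) and treated with 8-point 1:5 compound dilutions for about 18-24 h at 37° C. Luciferase measured by OneGlo luminescence; IC50 derived for inhibition of GR activity.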
`Cn1cc(S(=O)(=O)N(CC(F)(F)F)[C@H]2CCC3=Cc4c(cnn4-c4ccc(F)cc4)C[C@]3(C(=O)c3cc(C(F)(F)F)ccn3)C2)nn1` [Example 318, N-((4aS,6S)-1-(4-fluorophenyl)-4a-(4-(trifluoromethyl)picolinoyl)-4,4a,5,6,7,8-hexahydro-1H-benzo[f]indazol-6-yl)-1-methyl-N-(2,2,2-trifluoroethyl)-1H-1,2,3-triazole-4-sulfonamide] gave an IC50 of at most 0.1 µM.
With `CC(C)N([C@H]1CCC2=Cc3c(cnn3-c3ccc(F)cc3)C[C@]2(C(=O)c2cc(Cl)ccn2)C1)S(=O)(=O)c1ccc(Cl)nc1` [Example 323, 6-chloro-N-((4aS,6S)-4a-(4-chloropicolinoyl)-1-(4-fluorophenyl)-4,4a,5,6,7,8-hexahydro-1H-benzo[f]indazol-6-yl)-N-isopropylpyridine-3-sulfonamide] the IC50 was at most 0.1 µM.
Work on `Cc1nc(S(=O)(=O)N(C2CC2)[C@H]2CCC3=Cc4c(cnn4-c4ccc(F)cc4)C[C@]3(C(=O)c3ncc(C(F)(F)F)s3)C2)cn1C` [Example 336, N-cyclopropyl-N-((4aS,6S)-1-(4-fluorophenyl)-4a-(5-(trifluoromethyl)thiazole-2-carbonyl)-4,4a,5,6,7,8-hexahydro-1H-benzo[f]indazol-6-yl)-1,2-dimethyl-1H-imidazole-4-sulfonamide] yielded an IC50 of at most 0.1 µM.
`Cn1cc(S(=O)(=O)CC2CCC3=Cc4c(cnn4-c4ccc(F)cc4)C[C@]3(C(=O)c3ccc(C(F)(F)F)cn3)C2)cn1` (stereo partly drawn) [Example 340, ((4aR)-1-(4-fluorophenyl)-6-(((1-methyl-1H-pyrazol-4-yl)sulfonyl)methyl)-1,4,5,6,7,8-hexahydro-4aH-benzo[f]indazol-4a-yl)(5-(trifluoromethyl)pyridin-2-yl)methanone] was tested, and the IC50 was at most 0.1 µM.
Work on `C[C@]1(O)C[C@@H](N([C@H]2CCC3=Cc4c(cnn4-c4ccc(F)cc4)C[C@]3(C(=O)c3cc(F)ccn3)C2)S(=O)(=O)c2ccc(F)cc2)C1` [Example 343, 4-fluoro-N-((4aS,6S)-1-(4-fluorophenyl)-4a-(4-fluoropicolinoyl)-4,4a,5,6,7,8-hexahydro-1H-benzo[f]indazol-6-yl)-N-((1s,3R)-3-hydroxy-3-methylcyclobutyl)benzenesulfon-amide] yielded an IC50 of at most 0.1 µM.
In the case of `Cn1ccc(S(=O)(=O)N(CC(F)F)[C@H]2CCC3=Cc4c(cnn4-c4ccc(F)cc4)C[C@]3(C(=O)c3cc(Cl)ccn3)C2)n1` [Example 345, N-((4aS,6S)-4a-(4-chloropicolinoyl)-1-(4-fluorophenyl)-4,4a,5,6,7,8-hexahydro-1H-benzo[f]indazol-6-yl)-N-(2,2-difluoroethyl)-1-methyl-1H-pyrazole-3-sulfonamide], the IC50 is reported as at most 0.1 µM.
Molecule `O=C(c1cc(F)ccn1)[C@]12Cc3cnn(-c4ccc(F)cc4)c3C=C1CC[C@H](N(CC(F)F)S(=O)(=O)c1ccc(Cl)nc1)C2` [Example 351, 6-chloro-N-(2,2-difluoroethyl)-N-((4aS,6S)-1-(4-fluorophenyl)-4a-(4-fluoropicolinoyl)-4,4a,5,6,7,8-hexahydro-1H-benzo[f]indazol-6-yl)pyridine-3-sulfonamide] has an IC50 of at most 0.1 µM.
With `O=C(c1cc(Cl)ccn1)[C@]12Cc3cnn(-c4ccc(F)cc4)c3C=C1CC[C@H](N(CC(F)F)S(=O)(=O)c1ccc(Cl)nc1)C2` [Example 352, 6-chloro-N-((4aS,6S)-4a-(4-chloropicolinoyl)-1-(4-fluorophenyl)-4,4a,5,6,7,8-hexahydro-1H-benzo[f]indazol-6-yl)-N-(2,2-difluoroethyl)pyridine-3-sulfonamide] the IC50 was at most 0.1 µM.
For `Cn1ccc(S(=O)(=O)CC2CCC3=Cc4c(cnn4-c4ccc(F)cc4)C[C@]3(C(=O)c3cc(C(F)(F)F)ccn3)C2)n1` (stereo partly drawn) [Example 353, ((4aR)-1-(4-fluorophenyl)-6-(((1-methyl-1H-pyrazol-3-yl)sulfonyl)methyl)-1,4,5,6,7,8-hexahydro-4aH-benzo[f]indazol-4a-yl)(4-(trifluoromethyl)pyridin-2-yl)methanone], the IC50 was at most 0.1 µM.
With `Cn1ccc(S(=O)(=O)CC2CCC3=Cc4c(cnn4-c4ccc(F)cc4)C[C@]3(C(=O)c3ccc(C(F)(F)F)cn3)C2)n1` (stereo partly drawn) [Example 360, ((4aR)-1-(4-fluorophenyl)-6-(((1-methyl-1H-pyrazol-3-yl)sulfonyl)methyl)-1,4,5,6,7,8-hexahydro-4aH-benzo[f]indazol-4a-yl)(5-(trifluoromethyl)pyridin-2-yl)methanone] the IC50 was at most 0.1 µM.
Molecule `Cn1ccc(S(=O)(=O)CC2CCC3=Cc4c(cnn4-c4ccc(F)cc4)C[C@]3(C(=O)c3ncc(C(F)(F)F)s3)C2)n1` (stereo partly drawn) [Example 361, ((4aR)-1-(4-fluorophenyl)-6-(((1-methyl-1H-pyrazol-3-yl)sulfonyl)methyl)-1,4,5,6,7,8-hexahydro-4aH-benzo[f]indazol-4a-yl)(5-(trifluoromethyl)thiazol-2-yl)methanone] has an IC50 of at most 0.1 µM.
`Cn1ccc(S(=O)(=O)CC2CCC3=Cc4c(cnn4-c4ccc(F)cc4)C[C@]3(C(=O)c3cc(F)ccn3)C2)n1` (stereo partly drawn) [Example 362, ((4aR)-1-(4-fluorophenyl)-6-(((1-methyl-1H-pyrazol-3-yl)sulfonyl)methyl)-1,4,5,6,7,8-hexahydro-4aH-benzo[f]indazol-4a-yl)(4-fluoropyridin-2-yl)methanone] showed an IC50 of at most 0.1 µM.
For `Cn1ccc(S(=O)(=O)CC2CCC3=Cc4c(cnn4-c4ccc(F)cc4)C[C@]3(C(=O)c3cc(Cl)ccn3)C2)n1` (stereo partly drawn) [Example 364, (4-chloropyridin-2-yl)((4aR)-1-(4-fluorophenyl)-6-(((1-methyl-1H-pyrazol-3-yl)sulfonyl)methyl)-1,4,5,6,7,8-hexahydro-4aH-benzo[f]indazol-4a-yl)methanone], the IC50 was at most 0.1 µM.
In the case of `Cn1cnc(S(=O)(=O)[C@H]2CCC3=Cc4c(cnn4-c4ccc(F)cc4)C[C@]3(C(=O)c3cc(C(F)(F)F)ccn3)C2)n1` [Example 365, ((4aS,6S)-1-(4-fluorophenyl)-6-((1-methyl-1H-1,2,4-triazol-3-yl)sulfonyl)-1,4,5,6,7,8-hexahydro-4aH-benzo[f]indazol-4a-yl)(4-(trifluoromethyl)pyridin-2-yl)methanone], the IC50 is reported as at most 0.1 µM.
Work on `Cn1ccc(S(=O)(=O)N([C@H]2CCC3=Cc4c(cnn4-c4ccc(F)cc4)C[C@]3(C(=O)c3cc(C(F)(F)F)ccn3)C2)[C@H]2C[C@@](O)(C(F)(F)F)C2)n1` [Example 369, N-((4aS,6S)-1-(4-fluorophenyl)-4a-(4-(trifluoromethyl)picolinoyl)-4,4a,5,6,7,8-hexahydro-1H-benzo[f]indazol-6-yl)-N-((1r,3S)-3-hydroxy-3-(trifluoromethyl)cyclobutyl)-1-methyl-1H-pyrazole-3-sulfonamide] yielded an IC50 of at most 0.1 µM.
In the case of `O=C(c1cc(Cl)ccn1)[C@]12Cc3cnn(-c4ccc(F)cc4)c3C=C1CC[C@H](N(C1CC(F)(F)C1)S(=O)(=O)c1ccc(Cl)nc1)C2` [Example 370, 6-chloro-N-((4aS,6S)-4a-(4-chloropicolinoyl)-1-(4-fluorophenyl)-4,4a,5,6,7,8-hexahydro-1H-benzo[f]indazol-6-yl)-N-(3,3-difluorocyclobutyl)pyridine-3-sulfonamide], the IC50 is reported as at most 0.1 µM.
`COCCN([C@H]1CCC2=Cc3c(cnn3-c3ccc(F)cc3)C[C@]2(C(=O)c2ncc(C(F)(F)F)s2)C1)S(=O)(=O)c1ccc(F)cc1` [Example 372, 4-fluoro-N-((4aS,6S)-1-(4-fluorophenyl)-4a-(5-(trifluoromethyl)thiazole-2-carbonyl)-4,4a,5,6,7,8-hexahydro-1H-benzo[f]indazol-6-yl)-N-(2-methoxyethyl)benzenesulfon-amide] showed an IC50 of at most 0.1 µM.
